# Tests used:
# Assay type in all cases: cell-based, human
# [1] = tested on: HL-60 cells; assay: Cell viability resazurin assay, HL-60 cells; details: for viability of HL-60 cells relative to control: ± SD
# Description: (§1) The A549 (human non-small cell lung cancer) cell line was obtained from the American Type Culture Collection (ATCC) and cultured in Dulbecco's Modified Eagle Medium (DMEM) with 10% fetal bovine serum (FBS), 2 mM L-Glutamine, 25 mM HEPES and penicillin/streptomycin solution (100 U/ml and 100 µg/ml, respectively). The HL-60 (human promyelocytic leukemia) cell line was also obtained from the American Type Culture Collection (ATCC) and cultured in Iscove’s Modified Dulbecco's Medium (IMDM) with 15% fetal bovine serum (FBS), 2 mM L-Glutamine, 25 mM HEPES and penicillin/streptomycin solution (100 U/ml and 100 µg/ml, respectively). Both cell lines were cultured in flasks at 37 °C in 5% CO2 and sub-cultured every 2–3 days to maintain exponential growth.
# (§2) Firstly, resazurin salt powder was dissolved in sterile 1 × PBS. Cells were then seeded on the 96-well plates in the count of 1 × 10^4 in the case of HL-60 cells and of 5 × 10^4 for PBM cells and of 5 × 10^3 for A549 cells per well. A549 cells were seeded 24 h prior to treatment with the complexes to allow cell adherence to 96-well plate. Iron(II) complexes were added to wells to obtain final concentrations of 0.5, 1, 2.5, 5, 10, 25, 50, 100 and 250 μM. Subsequently, plates were incubated at 37 °C in 5% CO2 for 2 h and 24 h. After that 10 μl of resazurin salt was added to each well and plates again were incubated in 37 °C in 5% CO2 for 2 h. Finally, fluorescence was measured with microplate reader Synergy HT (Bio-Tek Instruments, USA) using an excitation wavelength of 530/25 and an emission wavelength of 590/35 nm. The effects of iron(II) complexes were calculated as the percentage of control fluorescence. IC50 (half maximal inhibitory concentration) values were calculated using a website algorithm (https://www.aatbio.com/tools/ic50-calculator). All assays were performed in octuplicate.
# [2] = tested on: PBM cells; assay: Cell viability resazurin assay, PBM cells; details: for viability of PBM cells relative to control: ± SD
# Excerpt: Peripheral blood mononuclear (PBM) cells were isolated from a leukocyte-buffy coat collected from the blood of healthy, non-smoking donors at the Blood Bank in Lodz, Poland. The study protocol received approval from the Committee for Research on Human Subjects of the University of Lodz (17/KBBN-UŁ/III/2019). The initial step of isolation process involved mixing buffy coats with PBS in a 1:1 ratio. Subsequently, the mixture was centrifuged using a density gradient of Lymphosep (Cytogen, Zgierz, Poland) at 2200 RPM for 20 min, employing the lowest values for acceleration and deceleration. PBM cells were collected and washed three times by centrifugation with 1 × PBS. Following isolation, the cells were suspended in RPMI 1640 medium.
# as §2
# [3] = tested on: A549 cells; assay: Cell viability resazurin assay, A549 cells; details: for viability of A549 cells relative to control: ± SD
# Description: as §1, §2
structure (smiles),measurement,setting,value
"O=C1C=CC(=O)[N-]1.[C-]#[O+].[Fe+2].c1cc[cH-]c1.c1ccc(P(c2ccccc2)c2ccccc2)cc1 [2a, CpFe(CO)(PPh3)(η^1-N-maleimidato)]",viability of HL-60 cells relative to control,"[1]; 2 h incubation, 0.5 µM",104.08 ± 2.11%
same,viability of HL-60 cells relative to control,"[1]; 2 h incubation, 1 µM",103.34 ± 3.15%
same,viability of HL-60 cells relative to control,"[1]; 2 h incubation, 2.5 µM",103.43 ± 2.81%
same,viability of HL-60 cells relative to control,"[1]; 2 h incubation, 5 µM",108.69 ± 1.98%
same,viability of HL-60 cells relative to control,"[1]; 2 h incubation, 10 µM",115.82 ± 2.26%
same,viability of HL-60 cells relative to control,"[1]; 2 h incubation, 25 µM",120.78 ± 3.7%
same,viability of HL-60 cells relative to control,"[1]; 2 h incubation, 50 µM",118.68 ± 5.5%
same,viability of HL-60 cells relative to control,"[1]; 2 h incubation, 100 µM",116.98 ± 3.65%
same,viability of HL-60 cells relative to control,"[1]; 2 h incubation, 250 µM",113.31 ± 3.08%
same,IC50,[1]; 24 h incubation,14.8 µM
same,viability of HL-60 cells relative to control,"[1]; 24 h incubation, 0.5 µM",103.09 ± 2.54%
same,viability of HL-60 cells relative to control,"[1]; 24 h incubation, 1 µM",104.21 ± 1.11%
same,viability of HL-60 cells relative to control,"[1]; 24 h incubation, 2.5 µM",100.69 ± 4.9%
same,viability of HL-60 cells relative to control,"[1]; 24 h incubation, 5 µM",79.99 ± 2.5%
same,viability of HL-60 cells relative to control,"[1]; 24 h incubation, 10 µM",52.57 ± 0.94%
same,viability of HL-60 cells relative to control,"[1]; 24 h incubation, 25 µM",15.3 ± 1.21%
same,viability of HL-60 cells relative to control,"[1]; 24 h incubation, 50 µM",10.1 ± 0.23%
same,viability of HL-60 cells relative to control,"[1]; 24 h incubation, 100 µM",10.31 ± 0.23%
same,viability of HL-60 cells relative to control,"[1]; 24 h incubation, 250 µM",8.4 ± 0.12%
same,viability of PBM cells relative to control,"[2]; 2 h incubation, 0.5 µM",98.55 ± 3.27%
same,viability of PBM cells relative to control,"[2]; 2 h incubation, 1 µM",98.65 ± 4.06%
same,viability of PBM cells relative to control,"[2]; 2 h incubation, 2.5 µM",98.07 ± 3.18%
same,viability of PBM cells relative to control,"[2]; 2 h incubation, 5 µM",98.94 ± 2.53%
same,viability of PBM cells relative to control,"[2]; 2 h incubation, 10 µM",101.13 ± 3.14%
same,viability of PBM cells relative to control,"[2]; 2 h incubation, 25 µM",102.46 ± 3.1%
same,viability of PBM cells relative to control,"[2]; 2 h incubation, 50 µM",102.7 ± 2.19%
same,viability of PBM cells relative to control,"[2]; 2 h incubation, 100 µM",104.68 ± 1.6%
same,viability of PBM cells relative to control,"[2]; 2 h incubation, 250 µM",104.85 ± 1.37%
same,IC50,[2]; 24 h incubation,61.4 µM
same,viability of PBM cells relative to control,"[2]; 24 h incubation, 0.5 µM",101.47 ± 3.95%
same,viability of PBM cells relative to control,"[2]; 24 h incubation, 1 µM",98.54 ± 1.78%
same,viability of PBM cells relative to control,"[2]; 24 h incubation, 2.5 µM",101.97 ± 3.08%
same,viability of PBM cells relative to control,"[2]; 24 h incubation, 5 µM",102.32 ± 1.76%
same,viability of PBM cells relative to control,"[2]; 24 h incubation, 10 µM",88.22 ± 1.4%
same,viability of PBM cells relative to control,"[2]; 24 h incubation, 25 µM",64.32 ± 0.17%
same,viability of PBM cells relative to control,"[2]; 24 h incubation, 50 µM",55.37 ± 0.71%
same,viability of PBM cells relative to control,"[2]; 24 h incubation, 100 µM",38.14 ± 0.33%
same,viability of PBM cells relative to control,"[2]; 24 h incubation, 250 µM",32.79 ± 1.16%
same,viability of A549 cells relative to control,"[3]; 2 h incubation, 0.5 µM",84.75 ± 11.62%
same,viability of A549 cells relative to control,"[3]; 2 h incubation, 1 µM",71.98 ± 10.47%
same,viability of A549 cells relative to control,"[3]; 2 h incubation, 2.5 µM",67.99 ± 8.45%
same,viability of A549 cells relative to control,"[3]; 2 h incubation, 5 µM",63.83 ± 8.57%
same,viability of A549 cells relative to control,"[3]; 2 h incubation, 10 µM",64.49 ± 7.71%
same,viability of A549 cells relative to control,"[3]; 2 h incubation, 25 µM",64.05 ± 10.66%
same,viability of A549 cells relative to control,"[3]; 2 h incubation, 50 µM",71.32 ± 8.08%
same,viability of A549 cells relative to control,"[3]; 2 h incubation, 100 µM",68.25 ± 7.97%
same,viability of A549 cells relative to control,"[3]; 2 h incubation, 250 µM",57.40 ± 11.79%
same,IC50,[3]; 24 h incubation,> 250 µM
same,"cytotoxicity against A549 cells, in words",[3]; 24 h incubation,did not show cytotoxicity
same,viability of A549 cells relative to control,"[3]; 24 h incubation, 0.5 µM",73.24 ± 14.30%
same,viability of A549 cells relative to control,"[3]; 24 h incubation, 1 µM",63.60 ± 12.84%
same,viability of A549 cells relative to control,"[3]; 24 h incubation, 2.5 µM",68.69 ± 13.05%
same,viability of A549 cells relative to control,"[3]; 24 h incubation, 5 µM",65.32 ± 9.49%
same,viability of A549 cells relative to control,"[3]; 24 h incubation, 10 µM",114.65 ± 23.41%
same,viability of A549 cells relative to control,"[3]; 24 h incubation, 25 µM",117.99 ± 19.59%
same,viability of A549 cells relative to control,"[3]; 24 h incubation, 50 µM",105.46 ± 17.32%
same,viability of A549 cells relative to control,"[3]; 24 h incubation, 100 µM",120.77 ± 9.93%
same,viability of A549 cells relative to control,"[3]; 24 h incubation, 250 µM",90.11 ± 9.87%
same,"A549 cell viability, increase with increasing concentrations to","[3]; 24 h incubation, concentration not given",120%

# Reference: paper PMC10920834, “Synthesis, anticancer activity, and molecular docking of half-sandwich iron(II) cyclopentadienyl complexes with maleimide and phosphine or phosphite ligands” (Scientific Reports, 2024)
